This note sets out measurements from patent US20200271640A1, “METHOD FOR SCREENING COMPOUNDS THAT MODULATE THE ACTIVITY OF THE ELECTRON TRANSPORT CHAIN” (IMG Pharma Biotech, S.L., priority 2017, published 2020).

Entries after “also recorded” stand apart in the source; their conditions may differ.

Test [1] deals with mitochondrial supercomplexes. The experiment in a line: DAB oxidation activity assay of complexes and supercomplexes of the mitochondrial ETC in rat heart MMP. The conditions noted are these: for effect on NADH evoked inhibition (inhibition period) of DAB oxidation, supercomplex activity: in presence of NADH; for inhibition of DAB oxidation by the substrate itself: substrate alone; for effect on NADPH consumption rate / NADPH-inhibition period of DAB oxidation: in presence of NADPH; for effect on succinate evoked decrease in DAB oxidation: in presence of succinate.
Procedure: The crude homogenate was subjected to a 1000×g for 8 min, and the resultant supernatant was centrifuged again at 18,000×g for 15 min (4° C., Microfuge® 22R centrifuge, Beckman Coulter). The pellet was washed in 20 volumes of homogenized buffer using an Ultra-Turrax® (T10 basic, IKA) and re-centrifuged under the same conditions. The homogenate aliquots were stored at −80 ° C. until they were used. Protein concentration was measured by the Bradford method and adjusted to the required concentrations.
(§5) The assay buffer consisted of a phosphate buffer (pH 7,4), EDTA, Cl2Mg, BSA and 3,3′-diaminobenzidine (DAB) in the absence or in the presence of CI and CII substrates and the tested drugs. The reaction was started by adding 0.1 mg/ml membranes homogenates to the assay buffer (25° C.) or putting into contact cell membrane microarrays with assay buffer. DAB oxidation was measured every 5-10 min spectrophotometrically at 460 and 595 nm in a Multiskan microtiter plate reader (Thermo Scientific) for 960 min in the case of homogenates
Results were expressed as means of independent data points±S.E.M. In sake of clarity, biochemical data (Complex I and II activities, superoxide production and supercomplex activity) are presented as percentage of controls with or without the application of ETC inhibitors. Data were analyzed using paired Student's t-test, one-way (followed by Tukey's post hoc test) or two-way ANOVA (followed by Bonferroni's post hoc test), as appropriate.

The test system of test [2] is NADH-ubiquinone oxidoreductase (complex I). Nature of the test: NADH-ubiquinone oxidoreductase (complex I) activity assay, DCIP reduction. The test is classed as biochemical, rat. Particulars: NADH (0.7 mM). On the procedure:
(§1) CI and CII assays were performed based on a previous protocol with some modifications. The reaction mixture consisted of potassium phosphate buffer (0.8M K2HPO4, 0.2M KH2PO4, pH 7.4), 3 mg/ml BSA, 160 μM 2,6-dichloroindophenol (DCIP) (Sigma) together with the CI or CII substrates. The reaction was started by the addition of 0.1 mg/ml membranes homogenates (25° C.) in the absence or in the presence of decylubiquinone and ETC inhibitors. […] Control experiments were performed to exclude any interference or substrate interaction.

In test [3] the test system is succinate dehydrogenase (complex II). Nature of the test: succinate dehydrogenase (complex II) activity assay, DCIP reduction. The test is classed as biochemical, rat. The conditions noted are these: succinate (1 mM). Here is the method: as §1
The next test relates to superoxide production. The experiment in a line: Superoxide production, NBT reduction in membrane homogenates. In kind it is biochemical, rat. The conditions noted are these: NADH (0.7 mM). On the procedure:
The assay medium for measurement of superoxide production consisted of a 50 mM phosphate buffer (Na2HPO4, NaH2PO4, pH 7,4), 0.5 mg/ml nitro blue tetrazolium (NBT) as a redox dye and CI or CII substrates. The reaction was started by the addition of 0.1 mg/ml membranes homogenates for 360 min (25° C.) with or without decylubiquinone and ETC inhibitors.

The test system of test [4] is mitochondrial supercomplexes. Nature of the test: DAB oxidation supercomplex assay in MMP isolated from heart of cynomolgus monkey. The test is classed as biochemical. The conditions noted are these: MMP from hearts of cynomolgus monkey.
Procedure: as §5
The test system of another test is electron transport chain. Particulars: human tissue cell membrane microarrays. Here is the method: (§2) Membrane homogenates isolated from human liver were suspended in buffer and they were printed (4 nL per spot, 2-5 replicates per sample) at increasing concentrations together with internal patrons onto glass slides using a non-contact microarrayer (Nano_plotter NP 2.1). The same process was used for developing cell membrane microarrays of different human tissues or rat tissues. Microarrays were stored at −20° C. until they were used. ETC activity assay using DAB and NBT as redox dyes
(§3) The assay buffer consisted of a 10 mM phosphate buffer (pH 7.4), 0.05% 3,3′-diaminobenzidine (DAB) or NBT (Nitro blue tetrazolium), 0.2 mM EGTA, 3 mg/ml BSA with or without mitochondrial ETC substrates and electron carriers, such as NADH and succinate. The reaction was started by adding 100 μl of the assay buffer to cell membrane microarrays using an incubation chamber. DAB oxidation or NBT reduction were measured every 20 min using a colorimetric high resolution scanner (Epson Perfection V750 Pro) for 24 hours.
(§4) Microphotographs were captured with the same light parameters and the collection of images was quantified with the MAPIX software (version 7.3.1). The optical densities obtained at different times were analyzed and the slope determined in the linear range was used to calculate the enzymatic rate.

For test [5], the system named is reactive oxygen species (ROS) such as superoxide. Particulars: human tissue cell membrane microarrays. On the procedure:
as §2, §3, §4

Consider `N#CC(C#N)=NNc1cccc(Cl)c1` [CCCP], for which the “effect on NADH evoked inhibition (inhibition period) of DAB oxidation, supercomplex activity” value (shortened to “effect on NADH evoked inhibition”) in test [1] (rat heart MMP) is recorded as “induces changes in both”.

For the compound `O=[N+]([O-])c1ccc(O)c([N+](=O)[O-])c1` [DNP], the “effect on NADH evoked inhibition” value in test [1] (rat heart MMP) is reported as “does not alter DAB oxidation”.

Take `NC(=O)C1=CN([C@@H]2O[C@H](COP(=O)(O)OP(=O)(O)OC[C@H]3O[C@@H](n4cnc5c(N)ncnc54)[C@H](O)[C@@H]3O)[C@@H](O)[C@H]2O)C=CC1` [NADH]: in test [1] (rat heart MMP), the “inhibition of DAB oxidation by the substrate itself” value was “full blockage”.

As to `NC(=O)C1=CN([C@@H]2O[C@H](COP(=O)(O)OP(=O)(O)OC[C@H]3O[C@@H](n4cnc5c(N)ncnc54)[C@H](OP(=O)(O)O)[C@@H]3O)[C@@H](O)[C@H]2O)C=CC1` [NADPH], the “inhibition of DAB oxidation by the substrate itself” value in test [1] (rat heart MMP) was “inhibits DAB oxidation”.

As to `NC(=O)c1ccc[n+]([C@@H]2O[C@H](COP(=O)([O-])OP(=O)(O)OC[C@H]3O[C@@H](n4cnc5c(N)ncnc54)[C@H](O)[C@@H]3O)[C@@H](O)[C@H]2O)c1` [NAD], in test [1] (rat heart MMP), the “effect on NADPH consumption rate / NADPH-inhibition period of DAB oxidation” value is listed as “reduces it”.

With `CCCCCCCCCCCCOS(=O)(=O)[O-].[Na+]` [SDS], the “effect on NADH evoked inhibition” value in test [1] (rat heart MMP) was “effects also observed”.

For `[Zn+2]` [Zinc], in test [1] (rat heart MMP), the “effect on NADH evoked inhibition” value is listed as “enhances the inhibition period evoked by NADH”.

Take `CCCCCCCCCCC1=C(C)C(=O)C(OC)=C(OC)C1=O` [dUQ, decylubiquinone]: the “effect of dUQ on the inhibitor's block of DCIP reduction, NADH” value in test [2] (myxothiazol, dUQ (50 μM)) is given as “does not produce the same effect with myxothiazol”. Besides, in test [3] (antimycin A, dUQ (50 μM)), the “effect of dUQ on the inhibitor's block of DCIP reduction, succinate” value is recorded as “blocks the effect of antimycin A”. In addition, the “superoxide production using NADH” value with superoxide production was “increased in the presence of dUQ”. Moreover, the “effect on NADH-dependent inhibition period of DAB oxidation” value in test [4] (NADH (0.7 mM)) is given as “significantly reduces the NADH-dependent inhibition period of DAB oxidation”. Also, the “partial blockage of the rotenone effect by dUQ” value in test [4] (NADH with rotenone) is “not detected in monkey”. Also, the “effect on inhibitor mediated enhancement of NADH inhibition of DAB oxidation” value in test [1] (dUQ at 10 μM, with NADH and rotenone, antimycin A or myxothiazol) was “reducing the inhibitor mediated effects; also recorded: partial blockage of the rotenone effect”; in test [1] (dUQ at 50 μM, with NADH and rotenone or antimycin A), “potentiating those evoked by rotenone and antimycin A”. For the same compound, the “effect on DAB oxidation blockage at higher concentrations of succinate” value in test [1] (rat heart MMP, higher concentrations of succinate (5 mM in FIG. 1e)) is recorded as “potentiates the DAB oxidation blockage”. For the same compound, in test [1] (rat heart MMP), the “effect on NADH evoked inhibition” value was “slight reduction of the NADH evoked inhibition of DAB oxidation”. Further, the “effect on NADPH consumption rate / NADPH-inhibition period of DAB oxidation” value in test [1] (rat heart MMP) is “NADPH-inhibition period is enhanced”.

As to `C[C@@H]1CC[C@@]2(OC1)O[C@H]1[C@@H](O)[C@H]3[C@@H]4CC[C@H]5C[C@@H](O[C@@H]6O[C@H](CO)[C@H](O[C@@H]7O[C@H](CO)[C@@H](O)[C@H](O[C@@H]8OC[C@@H](O)[C@H](O)[C@H]8O)[C@H]7O[C@@H]7O[C@H](CO)[C@H](O)[C@H](O[C@@H]8O[C@H](CO)[C@@H](O)[C@H](O)[C@H]8O)[C@H]7O)[C@H](O)[C@H]6O)[C@H](O)C[C@]5(C)[C@H]4CC[C@]3(C)[C@H]1[C@@H]2C` [digitonin], in test [1] (rat heart MMP), the “effect on NADH evoked inhibition” value is “enhancement on the NADH inhibition period”.

With `CO/C(=C/C(N)=O)[C@H](C)[C@H](/C=C/c1csc(-c2csc([C@@H](C)/C=C/C=C/C(C)C)n2)n1)OC` [myxothiazol], the “DCIP reduction in the presence of NADH” value in test [2] is “efficiently blocked DCIP reduction”. In addition, in test [3], the “DCIP reduction with succinate as substrate” value is “not myxothiazol did it”. Also, the “effect on succinate evoked decrease in DAB oxidation” value (shortened to “effect on succinate evoked decrease”) in test [1] (rat heart MMP) is “promotes the blockage of the succinate-derived electron input”.

Take `C=C(C)[C@H]1Cc2c(ccc3c2O[C@@H]2COc4cc(OC)c(OC)cc4[C@@H]2C3=O)O1` [rotenone]: in the test with superoxide production, the “superoxide production using NADH” value was “induces superoxide formation”. For the same compound, the “effect on NADH evoked inhibition” value in test [1] (rat heart MMP) is listed as “enhances the substrate evoked inhibition of DAB oxidation”.

`O=C(O)CCC(=O)O` [succinate]: the “ETC activity quantified using DAB as redox dye” value in the test with electron transport chain is recorded as “tissue specifically modulated”. The “formation of reactive oxygen species (formazan production)” value in test [5] is given as “produces the formation of reactive oxygen species (ROS) such as superoxide”. Further, the “inhibition of DAB oxidation by the substrate itself” value in test [1] (rat heart MMP) is on record as “partial inhibition”.

Turning to antimycin A, in test [2], the “DCIP reduction in the presence of NADH” value is on record as “not antimycin A efficiently blocked DCIP reduction”. Moreover, in test [3], the “DCIP reduction with succinate as substrate” value was “did it”. For the same compound, the “superoxide production using NADH” value with superoxide production is reported as “biphasic effect in which a maximum was observed in low micromolar range”. In addition, in test [1] (rat heart MMP), the “effect on NADH evoked inhibition” value is listed as “enhancement of the NADH-inhibition period” and the “effect on succinate evoked decrease” value is “blocks the electron flux generated by CII to cyt c”.

On to cytochrome c [cyt c], for which, in test [1] (rat heart MMP), the “effect on NADH evoked inhibition” value is listed as “cannot bypass the full inhibition caused by NADH on DAB oxidation; also recorded: decreases the time period in which a specific NADH concentration induces the DAB oxidation blockage”; the “effect on NADPH consumption rate / NADPH-inhibition period of DAB oxidation” value is “increases the NADPH consumption rate”; the “effect on succinate evoked decrease” value was “reduces the effect promoted by CI and CII substrates on DAB oxidation”. For the same compound, the “NADH consumption rate in the presence of ETC inhibitors” value in test [1] (soluble cyt c, with NADH and ETC inhibitors) is recorded as “accelerates the NADH consumption rate”.

In the case of sodium deoxycholate, the “effect on NADH evoked inhibition” value in test [1] (rat heart MMP) is given as “effects also observed”.
